In general, MIC99 refers to an inhibitory concentration at the 99% level, which refers to growth in some studies and to a panel of isolates in others. Low readings indicate greater potency, high ones weaker potency.

13 compounds from ChEMBL document CHEMBL3046623, “A search of novel antimicrobial based on benzimidazole and 2-pyridone heterocycles” (2012) can be followed below.

In brackets after ≈: the same amount, converted by molar mass.

Assay type in all cases: functional
The test system of one experiment is Streptococcus pyogenes. Description: Antibacterial activity against Streptococcus pyogenes MTCC 442 after 24 to 48 hr by serial dilution method.
The next experiment concerns Staphylococcus aureus. Description: Antibacterial activity against Staphylococcus aureus MTCC 96 after 24 to 48 hr by serial dilution method.
For another experiment, the system named is Pseudomonas aeruginosa. Description: Antibacterial activity against Pseudomonas aeruginosa MTCC 1688 after 24 to 48 hr by serial dilution method.
In another experiment the test system is Aspergillus niger. Briefly: Antifungal activity against Aspergillus niger MTCC 282 after 72 hr. The settings on record: MTCC 282, 72 h.
The test system of a further experiment is Aspergillus clavatus. Briefly: Antifungal activity against Aspergillus clavatus MTCC 1323 after 72 hr. The settings on record: MTCC 1323, 72 h.
The subject of the next experiment is Candida albicans. Description: Antifungal activity against Candida albicans MTCC 227 after 72 hr. The settings on record: MTCC 227, 72 h.
The subject of the next experiment is Escherichia coli. Briefly: Antibacterial activity against Escherichia coli MTCC 443 after 24 to 48 hr by serial dilution method.

Consider `C/C(=N\n1c(/N=C/c2cccc([N+](=O)[O-])c2)c(C#N)c(-c2ccccc2O)c(C#N)c1=O)c1nc2ccccc2[nH]1`, for which the MIC99 against Streptococcus pyogenes is 200 µg/mL (≈ 369 µM); with Staphylococcus aureus, 200 µg/mL (≈ 369 µM); in the experiment with Pseudomonas aeruginosa, 500 µg/mL (≈ 922 µM); with Aspergillus niger, 1000 µg/mL (≈ 1840 µM); against Aspergillus clavatus it was 1000 µg/mL (≈ 1840 µM); against Candida albicans it was 500 µg/mL (≈ 922 µM). This compound also returned an MIC99 against Escherichia coli of 500 µg/mL (≈ 922 µM).
Consider `C/C(=N\n1c(/N=C/c2ccc([N+](=O)[O-])cc2)c(C#N)c(-c2ccccc2O)c(C#N)c1=O)c1nc2ccccc2[nH]1`, for which the MIC99 with Streptococcus pyogenes was found to be 250 µg/mL (≈ 461 µM); against Staphylococcus aureus, 250 µg/mL (≈ 461 µM); with Pseudomonas aeruginosa, 250 µg/mL (≈ 461 µM); against Aspergillus niger, 1000 µg/mL (≈ 1840 µM); against Aspergillus clavatus, 1000 µg/mL (≈ 1840 µM); against Candida albicans it was 500 µg/mL (≈ 922 µM). In addition, the MIC99 against Escherichia coli came out at 250 µg/mL (≈ 461 µM).
In the case of `C/C(=N\n1c(/N=C/c2ccccc2Cl)c(C#N)c(-c2ccccc2O)c(C#N)c1=O)c1nc2ccccc2[nH]1`, the MIC99 stood at 250 µg/mL (≈ 470 µM) against Streptococcus pyogenes; 100 µg/mL (≈ 188 µM) against Staphylococcus aureus; 25 µg/mL (≈ 47 µM) against Pseudomonas aeruginosa; 100 µg/mL (≈ 188 µM) against Aspergillus niger; 1000 µg/mL (≈ 1880 µM) with Aspergillus clavatus; 1000 µg/mL (≈ 1880 µM) with Candida albicans. The same compound returned an MIC99 with Escherichia coli of 250 µg/mL (≈ 470 µM).
For `C/C(=N\n1c(/N=C/c2ccc(Cl)cc2)c(C#N)c(-c2ccccc2O)c(C#N)c1=O)c1nc2ccccc2[nH]1`, the MIC99 in the experiment on Streptococcus pyogenes was 250 µg/mL (≈ 470 µM); in the experiment on Staphylococcus aureus, 100 µg/mL (≈ 188 µM); with Pseudomonas aeruginosa, 250 µg/mL (≈ 470 µM); with Aspergillus niger it was 1000 µg/mL (≈ 1880 µM); in the experiment with Aspergillus clavatus it was 1000 µg/mL (≈ 1880 µM); against Candida albicans, 500 µg/mL (≈ 940 µM). This compound also yielded an MIC99 in the experiment with Escherichia coli of 100 µg/mL (≈ 188 µM).
Regarding `C/C(=N\n1c(/N=C/c2ccc(N(C)C)cc2)c(C#N)c(-c2ccccc2O)c(C#N)c1=O)c1nc2ccccc2[nH]1`, the MIC99 against Streptococcus pyogenes was determined as 100 µg/mL (≈ 185 µM); with Staphylococcus aureus, 100 µg/mL (≈ 185 µM); in the experiment with Pseudomonas aeruginosa, 100 µg/mL (≈ 185 µM); against Aspergillus niger, 500 µg/mL (≈ 925 µM); against Aspergillus clavatus it was 500 µg/mL (≈ 925 µM); with Candida albicans it was 200 µg/mL (≈ 370 µM). Also, the MIC99 in the experiment on Escherichia coli is 62.5 µg/mL (≈ 116 µM).
`COc1cc(/C=N/c2c(C#N)c(-c3ccccc3O)c(C#N)c(=O)n2/N=C(\C)c2nc3ccccc3[nH]2)ccc1O`: the MIC99 amounted to 250 µg/mL (≈ 460 µM) against Streptococcus pyogenes; 250 µg/mL (≈ 460 µM) in the experiment with Staphylococcus aureus; 100 µg/mL (≈ 184 µM) with Pseudomonas aeruginosa; 1000 µg/mL (≈ 1840 µM) in the experiment with Aspergillus niger; 1000 µg/mL (≈ 1840 µM) against Aspergillus clavatus; 1000 µg/mL (≈ 1840 µM) in the experiment on Candida albicans. For the same compound, the MIC99 with Escherichia coli was determined as 200 µg/mL (≈ 368 µM).
Regarding `COc1cc(/C=N/c2c(C#N)c(-c3ccccc3O)c(C#N)c(=O)n2/N=C(\C)c2nc3ccccc3[nH]2)cc(OC)c1OC`, the MIC99 came to 500 µg/mL (≈ 851 µM) with Streptococcus pyogenes; 250 µg/mL (≈ 425 µM) in the experiment with Staphylococcus aureus; 250 µg/mL (≈ 425 µM) in the experiment with Pseudomonas aeruginosa; 1000 µg/mL (≈ 1700 µM) in the experiment on Aspergillus niger; 100 µg/mL (≈ 170 µM) in the experiment with Aspergillus clavatus; 1000 µg/mL (≈ 1700 µM) against Candida albicans. The MIC99 against Escherichia coli was found to be 200 µg/mL (≈ 340 µM).
As to `C/C(=N\n1c(/N=C/c2ccccc2)c(C#N)c(-c2ccccc2O)c(C#N)c1=O)c1nc2ccccc2[nH]1`, the MIC99 is 100 µg/mL (≈ 201 µM) in the experiment on Streptococcus pyogenes; 250 µg/mL (≈ 502 µM) in the experiment on Staphylococcus aureus; 50 µg/mL (≈ 100 µM) in the experiment on Pseudomonas aeruginosa; 100 µg/mL (≈ 201 µM) with Aspergillus niger; 200 µg/mL (≈ 402 µM) against Aspergillus clavatus; 200 µg/mL (≈ 402 µM) in the experiment on Candida albicans. Further, the MIC99 with Escherichia coli amounted to 100 µg/mL (≈ 201 µM).
Consider `C/C(=N\n1c(/N=C/c2ccccc2O)c(C#N)c(-c2ccccc2O)c(C#N)c1=O)c1nc2ccccc2[nH]1`, for which the MIC99 against Streptococcus pyogenes came to 200 µg/mL (≈ 389 µM); against Staphylococcus aureus it was 200 µg/mL (≈ 389 µM); against Pseudomonas aeruginosa, 150 µg/mL (≈ 292 µM); against Aspergillus niger, 1000 µg/mL (≈ 1950 µM); with Aspergillus clavatus, 1000 µg/mL (≈ 1950 µM); with Candida albicans, 500 µg/mL (≈ 974 µM). Also, in the experiment with Escherichia coli, the MIC99 came to 150 µg/mL (≈ 292 µM).
`C/C(=N\n1c(/N=C/c2cccc(O)c2)c(C#N)c(-c2ccccc2O)c(C#N)c1=O)c1nc2ccccc2[nH]1`: the MIC99 in the experiment on Streptococcus pyogenes was found to be 500 µg/mL (≈ 974 µM); with Staphylococcus aureus, 200 µg/mL (≈ 389 µM); against Pseudomonas aeruginosa it was 250 µg/mL (≈ 487 µM); against Aspergillus niger, 1000 µg/mL (≈ 1950 µM); with Aspergillus clavatus, 1000 µg/mL (≈ 1950 µM); with Candida albicans, 500 µg/mL (≈ 974 µM). Moreover, in the experiment on Escherichia coli, the MIC99 is 250 µg/mL (≈ 487 µM).
For the compound `C/C(=N\n1c(/N=C/c2ccc(O)cc2)c(C#N)c(-c2ccccc2O)c(C#N)c1=O)c1nc2ccccc2[nH]1`, the MIC99 against Streptococcus pyogenes amounted to 50 µg/mL (≈ 97.4 µM); against Staphylococcus aureus it was 250 µg/mL (≈ 487 µM); against Pseudomonas aeruginosa, 150 µg/mL (≈ 292 µM); against Aspergillus niger, 1000 µg/mL (≈ 1950 µM); in the experiment on Aspergillus clavatus it was 100 µg/mL (≈ 195 µM); with Candida albicans it was 500 µg/mL (≈ 974 µM). Moreover, the MIC99 against Escherichia coli is 150 µg/mL (≈ 292 µM).
With `CC1(C)S[C@@H]2[C@H](NC(=O)[C@H](N)c3ccccc3)C(=O)N2[C@H]1C(=O)O` [AMPICILLIN], the MIC99 in the experiment on Streptococcus pyogenes was determined as 100 µg/mL (≈ 286 µM); in the experiment with Staphylococcus aureus, 250 µg/mL (≈ 715 µM); with Pseudomonas aeruginosa, 100 µg/mL (≈ 286 µM); against Escherichia coli, 100 µg/mL (≈ 286 µM).
On to `COC1=CC(=O)C[C@@H](C)[C@]12Oc1c(Cl)c(OC)cc(OC)c1C2=O` [GRISEOFULVIN], for which the MIC99 worked out at 100 µg/mL (≈ 283 µM) against Aspergillus niger, 100 µg/mL (≈ 283 µM) in the experiment with Aspergillus clavatus and 500 µg/mL (≈ 1420 µM) against Candida albicans.
